From the supplement of paper PMC10307832

Legend:
Test in all cases: relative viability (nuclei count vs DMSO), 5 days (fraction); higher = more cells survive
RERF-LC-KJ = tested on: RERF-LC-KJ
Outline: (§1)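 Lung cancer cell lines were seeded in 1536-well plates and dosed by pin tool the next day, with either a single drug or a fixed anchor-drug dose combined with five library-drug doses (not always all listed) spaced in √10 steps. Five days later, one step fixed the cells and stained their nuclei (final 0.05% Triton X-100, 1% formaldehyde, 1 ug/ml Hoechst), and nuclei were counted on 4× images. Relative viability is the nuclei count in treated wells divided by the count in vehicle wells, and each value is the median of duplicate plates.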

LU99A = tested on: LU99A
Outline: as §1

SK-LU-1 = tested on: SK-LU-1
Outline: as §1

EMC-BAC-2 = tested on: EMC-BAC-2
Outline: as §1

SW 1573 = tested on: SW 1573
Outline: as §1

NCI-H1666 = tested on: NCI-H1666
Outline: as §1

NCI-H1975 = tested on: NCI-H1975
Outline: as §1

EPLC-272H = tested on: EPLC-272H
Outline: as §1

NCI-H322M = tested on: NCI-H322M
Outline: as §1

NCI-H23 = tested on: NCI-H23
Outline: as §1

LOU-NH91 = tested on: LOU-NH91
Outline: as §1

HCC-827 = tested on: HCC-827
Outline: as §1

NCI-H3122 = tested on: NCI-H3122
Outline: as §1

LXF-289 = tested on: LXF-289
Outline: as §1

NCI-H2085 = tested on: NCI-H2085
Outline: as §1

ChaGo-K-1 = tested on: ChaGo-K-1
Outline: as §1

HCC-78 = tested on: HCC-78
Outline: as §1

LCLC-103H = tested on: LCLC-103H
Outline: as §1

NCI-H2126 = tested on: NCI-H2126
Outline: as §1

LK-2 = tested on: LK-2
Outline: as §1

SW 900 = tested on: SW 900
Outline: as §1

NCI-H2405 = tested on: NCI-H2405
Outline: as §1

O=C(O)c1ccc(-c2c[nH]c3ncc(-c4ccccc4)cc23)cc1C1CCCC1 + Nc1ncn([C@H]2C[C@H](O)[C@@H](CO)O2)c(=O)n1 [Decitabine] (partner 2 µM)
relative viability (RERF-LC-KJ; first compound 0.04 µM): 0.718 | relative viability (RERF-LC-KJ; first compound 0.1265 µM): 0.718 | relative viability (RERF-LC-KJ; first compound 0.4 µM): 0.596 | relative viability (RERF-LC-KJ; first compound 1.265 µM): 0.468 | relative viability (LU99A; first compound 0.04 µM): 0.88 | relative viability (LU99A; first compound 0.1265 µM): 0.837 | relative viability (LU99A; first compound 0.4 µM): 0.822 | relative viability (LU99A; first compound 1.265 µM): 0.576 | relative viability (SK-LU-1; first compound 0.04 µM): 0.633 | relative viability (SK-LU-1; first compound 0.1265 µM): 0.587 | relative viability (SK-LU-1; first compound 0.4 µM): 0.592 | relative viability (SK-LU-1; first compound 1.265 µM): 0.508 | relative viability (EMC-BAC-2; first compound 0.04 µM): 0.948 | relative viability (EMC-BAC-2; first compound 0.1265 µM): 1.06 | relative viability (EMC-BAC-2; first compound 0.4 µM): 1.01 | relative viability (EMC-BAC-2; first compound 1.265 µM): 0.909 | relative viability (SW 1573; first compound 0.04 µM): 0.403 | relative viability (SW 1573; first compound 0.1265 µM): 0.546 | relative viability (SW 1573; first compound 0.4 µM): 0.505 | relative viability (SW 1573; first compound 1.265 µM): 0.407 | relative viability (NCI-H1666; first compound 0.04 µM): 0.689 | relative viability (NCI-H1666; first compound 0.1265 µM): 0.805 | relative viability (NCI-H1666; first compound 0.4 µM): 0.693 | relative viability (NCI-H1666; first compound 1.265 µM): 0.613 | relative viability (NCI-H1975; first compound 0.04 µM): 0.393 | relative viability (NCI-H1975; first compound 0.1265 µM): 0.447 | relative viability (NCI-H1975; first compound 0.4 µM): 0.554 | relative viability (NCI-H1975; first compound 1.265 µM): 0.376 | relative viability (EPLC-272H; first compound 0.04 µM): 0.351 | relative viability (EPLC-272H; first compound 0.1265 µM): 0.402 | relative viability (EPLC-272H; first compound 0.4 µM): 0.388 | relative viability (EPLC-272H; first compound 1.265 µM): 0.277 | relative viability (NCI-H322M; first compound 0.04 µM): 0.772 | relative viability (NCI-H322M; first compound 0.1265 µM): 0.704 | relative viability (NCI-H322M; first compound 0.4 µM): 0.723 | relative viability (NCI-H322M; first compound 1.265 µM): 0.66 | relative viability (NCI-H23; first compound 0.04 µM): 0.329 | relative viability (NCI-H23; first compound 0.1265 µM): 0.256 | relative viability (NCI-H23; first compound 0.4 µM): 0.29 | relative viability (NCI-H23; first compound 1.265 µM): 0.251 | relative viability (LOU-NH91; first compound 0.04 µM): 0.815 | relative viability (LOU-NH91; first compound 0.1265 µM): 0.859 | relative viability (LOU-NH91; first compound 0.4 µM): 0.832 | relative viability (LOU-NH91; first compound 1.265 µM): 0.718 | relative viability (HCC-827; first compound 0.04 µM): 0.263 | relative viability (HCC-827; first compound 0.1265 µM): 0.316 | relative viability (HCC-827; first compound 0.4 µM): 0.273 | relative viability (HCC-827; first compound 1.265 µM): 0.337 | relative viability (NCI-H3122; first compound 0.04 µM): 0.423 | relative viability (NCI-H3122; first compound 0.1265 µM): 0.431 | relative viability (NCI-H3122; first compound 0.4 µM): 0.471 | relative viability (NCI-H3122; first compound 1.265 µM): 0.428 | relative viability (LXF-289; first compound 0.04 µM): 0.352 | relative viability (LXF-289; first compound 0.1265 µM): 0.355 | relative viability (LXF-289; first compound 0.4 µM): 0.361 | relative viability (LXF-289; first compound 1.265 µM): 0.302 | relative viability (NCI-H2085; first compound 0.04 µM): 0.588 | relative viability (NCI-H2085; first compound 0.1265 µM): 0.548 | relative viability (NCI-H2085; first compound 0.4 µM): 0.56 | relative viability (NCI-H2085; first compound 1.265 µM): 0.366 | relative viability (ChaGo-K-1; first compound 0.04 µM): 0.515 | relative viability (ChaGo-K-1; first compound 0.1265 µM): 0.501 | relative viability (ChaGo-K-1; first compound 0.4 µM): 0.484 | relative viability (ChaGo-K-1; first compound 1.265 µM): 0.478 | relative viability (HCC-78; first compound 0.1265 µM): 0.862 | relative viability (HCC-78; first compound 0.4 µM): 0.859 | relative viability (HCC-78; first compound 1.265 µM): 0.622 | relative viability (LCLC-103H; first compound 0.04 µM): 0.767 | relative viability (LCLC-103H; first compound 0.1265 µM): 0.789 | relative viability (LCLC-103H; first compound 0.4 µM): 0.746 | relative viability (LCLC-103H; first compound 1.265 µM): 0.667 | relative viability (NCI-H2126; first compound 0.04 µM): 0.585 | relative viability (NCI-H2126; first compound 0.1265 µM): 0.621 | relative viability (NCI-H2126; first compound 0.4 µM): 0.466 | relative viability (NCI-H2126; first compound 1.265 µM): 0.569 | relative viability (LK-2; first compound 0.04 µM): 0.253 | relative viability (LK-2; first compound 0.1265 µM): 0.327 | relative viability (LK-2; first compound 0.4 µM): 0.28 | relative viability (LK-2; first compound 1.265 µM): 0.333 | relative viability (SW 900; first compound 0.04 µM): 0.437 | relative viability (SW 900; first compound 0.1265 µM): 0.456 | relative viability (SW 900; first compound 0.4 µM): 0.38 | relative viability (SW 900; first compound 1.265 µM): 0.344 | relative viability (NCI-H2405; first compound 0.04 µM): 0.71 | relative viability (NCI-H2405; first compound 0.1265 µM): 0.762 | relative viability (NCI-H2405; first compound 0.4 µM): 0.676 | relative viability (NCI-H2405; first compound 1.265 µM): 0.515
